Here are results for 17 compounds from ChEMBL document CHEMBL5154893, “Design, Synthesis, and Biological Evaluation of Potent 20S Proteasome Activators for the Potential Treatment of α-Synucleinopathies” (J Med Chem, 2022).

Structures are written as SMILES.

For data set [1], the target named is T1, 20S proteasome (Homo sapiens) (UniProt P49721+P20618+P28074+P28062+P28065+P28072+P25786+P25787+P25788+P25789+P28066+P60900+O14818+Q8TAA3+P40306+A5LHX3+P49720+P28070+Q99436). Nature of the data set: Activation of human 20S proteosome at trypsin-like site assessed as substrate degradation using Boc-LLR-AMC as flurogenic substrate preincubated for 15 mins followed by substrate addition and measured after 1 hr by spectrometric analysis. Format: protein-complex assay.

Data set [2] deals with T1, 20S proteasome (Homo sapiens). The data set can be described thus: Activation of human 20S proteosome at caspase-like site assessed as substrate degradation using Z-LLE-AMC as flurogenic substrate preincubated for 15 mins followed by substrate addition and measured after 1 hr by spectrometric analysis. Format: protein-complex assay.
For data set [3] the target is unchanged. The data set can be described thus: Activation of human 20S proteosome at chymotrypsin like site assessed as substrate degradation using Suc-LLVY-AMC as flurogenic substrate preincubated for 15 mins followed by substrate addition and measured after 1 hr by spectrometric analysis. Format: protein-complex assay.
Data set [4] shares this target. The data set can be described thus: Activation of human 20S proteosome assessed as substrate degradation using Suc-LLVY-AMC/Z-LLE-AMC/Boc-LLR-AMC as flurogenic substrate preincubated for 15 mins followed by substrate addition and measured after 1 hr by spectrometric analysis. Type of data set: protein-complex assay.
The target is the same in data set [5]. The data set can be described thus: Activation of human 20S proteosome at trypsin-like site assessed as maximum fold change in substrate degradation using Boc-LLR-AMC as flurogenic substrate preincubated for 15 mins followed by substrate addition and measured after 1 hr by spectrometric analysis relative to control. Format: protein-complex assay. The note with it: filed as activator.

The target is the same in data set [6]. The data set can be described thus: Activation of human 20S proteosome assessed as maximum fold change in substrate degradation using Suc-LLVY-AMC/Z-LLE-AMC/Boc-LLR-AMC as flurogenic substrate preincubated for 15 mins followed by substrate addition and measured after 1 hr by spectrometric analysis relative to control. Format: protein-complex assay. The note with it: filed as activator.

For data set [7] the target is unchanged. Nature of the data set: Activation of human 20S proteosome at chymotrypsin like site assessed as maximum fold change in substrate degradation using Suc-LLVY-AMC as flurogenic substrate preincubated for 15 mins followed by substrate addition and measured after 1 hr by spectrometric analysis relative to control. Format: protein-complex assay. As to conditions: filed as activator.

Data set [8] has the same target. Nature of the data set: Activation of human 20S proteosome at caspase-like site assessed as maximum fold change in substrate degradation using Z-LLE-AMC as flurogenic substrate preincubated for 15 mins followed by substrate addition and measured after 1 hr by spectrometric analysis relative to control. As to conditions: filed as activator. Type of data set: protein-complex assay.

Data set [9] is filed under the species Homo sapiens. Nature of the data set: Activation of human 20S-proteosome mediated full length alpha-synuclein degradation by measuring remaining protein at 15 uM incubated for 45 mins by Western blot analysis relative to control.
The species named for data set [10] is Homo sapiens. Nature of the data set: Activation of human 26S proteosome assessed as increase in fold change in proteolytic degradation using SUC-ANW-AMC/Z-LLE-AMC/Boc-LRRAMC as flurogenic substrate at 80 uM preincubated for 15 mins followed by substrate addition and measured after 1 hr by spectrometric analysis relative to control. As to conditions: filed as activator.

The test system of data set [11] is HEK293T. Nature of the data set: Activation of 20S proteasome mediated full length alpha-synuclein A53T mutant degradation expressed in HEK293T cells assessed as residual protein at 15 uM incubated for 24 hrs by Western blot analysis relative to control. Format: cell-based. As to conditions: Homo sapiens, filed as activator.
Data set [12] is filed under the species Homo sapiens. The data set can be described thus: Activation of human 20S-proteosome mediated degradation of full length wild type alpha-synuclein at 15 uM incubated for 45 mins by Western blot analysis relative to control. The note with it: filed as activator.
The species entered for data set [13] is Homo sapiens. Nature of the data set: Activation of human 20S-proteosome mediated degradation of full length wild type alpha-synuclein at 10 uM incubated for 45 mins by Western blot analysis relative to control. Background: A western blot detects proteins with antibodies after separation by electrophoresis.
For data set [14], the system named is HEK293T. Nature of the data set: Activation of 20S proteasome mediated full length alpha-synuclein A53T mutant degradation expressed in HEK293T cells assessed as residual protein at 5 uM incubated for 24 hrs by Western blot analysis relative to control. Format: cell-based. The note with it: Homo sapiens.
The species entered for data set [15] is Homo sapiens. The data set can be described thus: Activation of human 20S-proteosome mediated full length alpha-synuclein degradation by measuring remaining protein at 10 uM incubated for 45 mins by Western blot analysis relative to control.
The next data set relates to HEK-293T. Nature of the data set: Cytotoxicity in human HEK293T cells assessed as reduction in cell viability at 15 uM incubated for 16 hrs by CellTiter-glo assay. Format: toxicity, cell-based.
Data set [16] is filed under the species Homo sapiens. Nature of the data set: Activation of human 20S-proteosome mediated full length alpha-synuclein degradation by measuring remaining protein at 2.5 uM incubated for 45 mins by Western blot analysis relative to control.
The species entered for data set [17] is Homo sapiens. Nature of the data set: Activation of human 20S-proteosome mediated full length alpha-synuclein degradation by measuring remaining protein at 5 uM incubated for 45 mins by Western blot analysis relative to control.

Regarding `CN(C)C(=O)CCN1c2ccccc2Sc2ccc(Cl)cc21`, the EC200 in data set [1], in data set [2], in data set [3] and in data set [4] was more than 80 µM throughout.

In the case of `NC(=O)CCCCN1c2ccccc2Sc2ccc(Cl)cc21`, the EC200 in data set [1], in [2], in [3] and in data set [4] was more than 80 µM in each case.

For the compound `O=C(CCN1c2ccccc2Sc2ccc(Cl)cc21)Nc1ccccc1`, the EC200 in data set [1] (filed as activator) is 80 µM; in data set [2], more than 80 µM; in data set [3], more than 80 µM; in data set [4] (filed as activator), 40 µM. The fold change (FC) in [5] was determined as 2; in [6], 2.5.

As for `CN(C(=O)CCN1c2ccccc2Sc2ccc(Cl)cc21)c1ccc(F)cc1`, the EC200 in [1], in data set [2], in data set [3] and in data set [4] was more than 80 µM throughout.

Turning to `Nc1cccc(CN2c3ccccc3Sc3ccc(Cl)cc32)c1`, the EC200 in data set [1] (filed as activator) came out at 9.2 µM; in data set [2] (filed as activator), 3.8 µM; in data set [3] (filed as activator), 6.5 µM; in data set [4] (filed as activator), 3.6 µM. Also, the fold change (FC) is 10 in data set [5], 9 in [7], 8 in data set [6] and 10 in data set [8].

Take `COC(=O)c1ccc(CN2c3ccccc3Sc3ccc(Cl)cc32)cc1`: the EC200 in data set [1] (filed as activator) is 2.6 µM; in data set [2] (filed as activator), 2.7 µM; in [3] (filed as activator), 1.9 µM; in data set [4] (filed as activator) it was 1.4 µM. Moreover, the fold change (FC) in data set [5] was found to be 15; in data set [7], 1.2; in the data set listed under Homo sapiens [10], 2; in data set [6], 9; in data set [8], 7. The Activity in the data set listed under Homo sapiens [9] (filed as activator) was 33%; in the data set with HEK293T [11] it was 25%.

As to `Oc1ccc(CN2c3ccccc3Sc3ccc(Cl)cc32)cc1`, the EC200 in [1], in data set [2], in data set [3] and in data set [4] was more than 80 µM throughout.

On to `N#CCCCCN1c2ccccc2Sc2ccc(Cl)cc21`, for which the EC200 in data set [1], in data set [2], in data set [3] and in [4] was more than 80 µM in each case.

On to `Clc1ccc2c(c1)N(Cc1ccccc1)c1ccccc1S2`, for which the EC200 in data set [1] (filed as activator) is 3.1 µM; in [2], more than 80 µM; in data set [3] (filed as activator), 2.8 µM; in data set [4] (filed as activator) it was 1.5 µM. Further, the fold change (FC) in [5] worked out at 2; in data set [7], 3; in data set [6] it was 2.

Take `CN(C)CCCN1c2ccccc2Sc2ccc(Cl)cc21`: the EC200 in data set [1] was more than 80 µM; in [2], more than 80 µM; in [3] (filed as activator), 7 µM; in data set [4] (filed as activator), 13.5 µM. The results for the fold change (FC) (in [7]; in the data set listed under Homo sapiens [10]; in [6]) were 8, 2 and 4, respectively. Moreover, the results for the Activity in the data set filed under Homo sapiens [9] (filed as activator) and in the data set listed under Homo sapiens [12] were 34% and 80%, respectively.

For `CC(C)(C)OC(=O)c1ccc(CN2c3ccccc3Sc3ccc(Cl)cc32)cc1`, the EC200 in data set [1], in data set [2], in data set [3] and in [4] was more than 80 µM each time.

With `CC(=O)Oc1ccc(CN2c3ccccc3Sc3ccc(Cl)cc32)cc1`, the EC200 in data set [1], in [2], in data set [3] and in data set [4] was more than 80 µM throughout.

On to `COc1cccc(CN2c3ccccc3Sc3ccc(Cl)cc32)c1`, for which the EC200 in [1] (filed as activator) is 5.4 µM; in data set [2] (filed as activator) it was 1.3 µM; in data set [3], more than 80 µM; in [4] (filed as activator) it was 1.5 µM. The fold change (FC) amounted to 2 in data set [5], 4 in data set [6] and 4 in data set [8].

In turn, `CCOC(=O)[C@]1(c2ccccc2)N=C(c2ccc(OC)cc2)N(Cc2ccccc2)[C@@H]1c1ccc(NCc2ccccc2)cc1` gave an Activity in the data set listed under Homo sapiens [9] of 22%.

With `COC(=O)c1cccc(CN2c3ccccc3Sc3ccc(Cl)cc32)c1`, the EC200 turned out to be 1.9 µM in data set [1] (filed as activator), 9.7 µM in data set [2] (filed as activator), 2.4 µM in data set [3] (filed as activator) and 2.4 µM in [4] (filed as activator). Also, the fold change (FC) in [5] came out at 8; in data set [7], 6; in data set [6] it was 6; in data set [8], 4.

As to `O=[N+]([O-])c1cccc(CN2c3ccccc3Sc3ccc(Cl)cc32)c1`, the EC200 in data set [1] (filed as activator) is 1.6 µM; in data set [2] (filed as activator), 1.2 µM; in data set [3] (filed as activator) it was 1.1 µM; in [4] (filed as activator), 1.1 µM. For the same compound, the fold change (FC) in data set [5] is 8; in data set [7], 9; in data set [6], 8; in data set [8], 12.

Take `O=C(CCN1c2ccccc2Sc2ccc(Cl)cc21)N(c1ccc(F)cc1)c1ccc(F)cc1`: the Activity is 73% in the data set listed under Homo sapiens [13]; 19% in the data set filed under Homo sapiens [9]; 67% in the data set with HEK293T [14]; 27% in the data set filed under Homo sapiens [15]; more than 80% in the data set with HEK-293T; 69% in the data set listed under Homo sapiens [16]. This compound also showed an Activity in the data set listed under Homo sapiens [17] of 51%. Also, the EC200 came out at 0.3 µM in [1] (filed as activator), 1.8 µM in data set [2] (filed as activator), 0.7 µM in data set [3] (filed as activator) and 0.4 µM in [4] (filed as activator). In addition, the fold change (FC) amounted to 6 in data set [5], 9.4 in [7], 11 in data set [6] and 9.4 in data set [8].
